Measured values taken from ChEMBL document CHEMBL1133110, “bis-Quinolinium cyclophanes: 8,14-diaza-1,7(1, 4)-diquinolinacyclotetradecaphane (UCL 1848), a highly potent and selective, nonpeptidic blocker of the apamin-sensitive Ca(2+)-activated K(+) channel” (J Med Chem, 2000).

Assays:
[1] = Equieffective molar ratio is ratio of the concentration of the test compound and dequalinium that cause 50% inhibition of AHP
Rattus norvegicus [2] = species: Rattus norvegicus; assay: tested for their ability to inhibit the after- hyperpolarization in cultured rat sympathetic neurons; format: functional, Sympathetic neuron
Rattus norvegicus [3] = species: Rattus norvegicus; assay: tested for their ability to inhibit the after- hyperpolarization in cultured rat sympathetic neurons (omitting the comparison with dequalinium); format: functional; settings: Sympathetic neuron
Rattus norvegicus [4] = species: Rattus norvegicus; assay: tested for their ability to inhibit the after- hyperpolarization (AHP) in cultured rat sympathetic neurons; format: functional; settings: Sympathetic neuron
[5] = Rattus norvegicus, Sympathetic neuron

Row | EMR [1] | IC50 (Rattus norvegicus [2]; sympathetic neuron) [nM] | IC50 (Rattus norvegicus [2]; [5]) [nM] | IC50 (Rattus norvegicus [4]) [nM] | SMILES | IC50 (Rattus norvegicus [3]) [nM]
1 | 0.77 | 380 | – | – | [I-].[I-].c1ccc2c(c1)c1cc[n+]2CCC[n+]2ccc(c3ccccc32)NCCCN1 (stereo in doubt; form 2) | –
2 | 0.43 | – | 190 | – | [I-].[I-].c1ccc2c(c1)c1cc[n+]2CCCCCCCC[n+]2ccc(c3ccccc32)NCCCCCCCCN1 | –
3 | 0.27 | 130 | – | – | [I-].[I-].c1ccc2c(c1)c1cc[n+]2CCC[n+]2ccc(c3ccccc32)NCCCN1 (stereo in doubt; form 1) | –
4 | 0.09 | – | 40 | – | [I-].[I-].c1ccc2c(c1)c1cc[n+]2CCCC[n+]2ccc(c3ccccc32)NCCCCN1 | –
5 | 0.1 | – | 60 | – | [I-].[I-].c1ccc2c(c1)c1cc[n+]2CCCCCC[n+]2ccc(c3ccccc32)NCCCCCCN1 | –
6 | 0.44 | – | 260 | – | [I-].[I-].c1ccc2c(c1)c1cc[n+]2CCCCCCCCCC[n+]2ccc(c3ccccc32)NCCCCCCCCCCN1 | –
7 | 1 | – | – | 490 | Cc1cc(N)c2ccccc2[n+]1CCCCCCCCCC[n+]1c(C)cc(N)c2ccccc21.[Cl-].[Cl-] [DEQUALINIUM CHLORIDE] | –

Row | SMILES | EMR [1] | IC50 (Rattus norvegicus [2]; sympathetic neuron) [nM] | IC50 (Rattus norvegicus [2]; [5]) [nM] | IC50 (Rattus norvegicus [4]) [nM] | IC50 (Rattus norvegicus [3]) [nM]
8 | [I-].[I-].c1ccc2c(c1)c1cc[n+]2CCCCC[n+]2ccc(c3ccccc32)NCCCCCN1 | 0.003 | – | 2 | – | 2.7
9 | c1cc2cc(c1)C[n+]1ccc(c3ccccc31)NCc1ccc(cc1)CNc1cc[n+](c3ccccc13)C2 | 0.01 | – | – | – | –
